Laboratory results taken from the METLIN SMRT retention time set (Domingo-Almenara et al. 2019).

Experiment: gradient 5% acetonitrile 3 min, to 50% in 2 min, to 85% in 15 min, held 3 min, 100 µL/min
Settings: column: Zorbax Extend-C18 2.1 x 50 mm; eluents: water / acetonitrile, 0.1% formic acid
Procedure, shortened: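 Each retention time is based on an adduct peak selected computationally and verified by manual inspection. Measurements used HPLC–quadrupole time-of-flight mass spectrometry in positive and negative ionization mode on mixtures of ~100 pure standards. Chromatography ran on a Zorbax Extend-C18 column (2.1 × 50 mm, 1.8 μm) at 100 μL/min with water and acetonitrile, each containing 0.1% formic acid, and dead and dwell volumes of 40 μL and 900 μL.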

| SMILES | RP-LC retention time |
| --- | --- |
| O=C(Cn1cncc(-c2nc(-c3ccccc3)cs2)c1=O)N1CCCC1 | 789 s |
| Cc1cc(C)cc(-c2nnc(Cc3nc(-c4ccncc4)no3)o2)c1 | 886 s |
| COc1cc(NC(=O)[C@@H]2[C@H](c3cc(OC)c(OC)c(OC)c3)c3cc4c(cc3[C@H](O)[C@H]2CO)OCO4)cc(OC)c1 | 767 s |
| CN1C(=O)c2cccnc2Sc2cc(C(=O)NCc3ccccc3)ccc21 | 746 s |
| COc1ccccc1CNC(=O)c1cn2ccccc2n1 | 665 s |
| CC1CCC2(CC1)NC(=O)N(CC(=O)NCc1ccc(F)cc1)C2=O (configuration not stated) | 801 s |
| Cc1cccc(NC(=O)N2CCc3nc(-c4ccc(F)cc4)ncc3C2)c1C | 974 s |
| Cc1ccc(NC(=O)Cn2cnc3c(sc4nc(-c5ccccc5)ccc43)c2=O)cc1 | 859 s |
| COc1cc(OC)cc(C(=O)Nc2ccc(N3CCN(C4CCCCC4)C3=O)nc2)c1 | 889 s |
| O=C(C1CC1)N1CCC(N(Cc2cccnc2)C2CCOCC2)CC1 | 550 s |
| O=c1ccn(-c2cccc(F)c2)nc1-c1nc(-c2ccccc2Br)no1 | 905 s |
| CCOc1ccc2nc(C(=O)NC3CCCCCC3)cn2n1 | 982 s |
| COc1cc(CN2C[C@@H]3C(=O)N(CCCN4CCCC4=O)C(=O)[C@@H]3C2)ccc1OC(C)C | 610 s |
| CCOc1ccc(C(=O)N2C[C@@H]3C[C@H]2C[C@@H]3NS(C)(=O)=O)cc1 | 658 s |
| CCNC(=O)CCc1nc2ccccc2n(CC(=O)Nc2cccc(C(=O)OCC)c2)c1=O | 775 s |
| O=C(NCc1ccc(F)cc1F)c1c(O)c2cccnc2n(Cc2ccccc2)c1=O | 1400 s |
| COc1cccc(NC(=O)Cn2nc3c(Oc4cccc(F)c4)nccn3c2=O)c1 | 839 s |
| CCNC(=O)Cc1nnc(-c2cccc(F)c2)o1 | 656 s |
| Cc1ccc(CNC(=O)C2(C)Cn3nc(C(=O)NCc4cccc(C)c4)cc3C(=O)N2C)cc1 (configuration not stated) | 824 s |
| O=c1ccc(S(=O)(=O)N2CCOCC2)cn1Cc1cc(F)cc(F)c1 | 791 s |
| CCN1C(=O)c2cccnc2Sc2cc(NC(=O)c3ccc(C(F)(F)F)cc3)ccc21 | 950 s |
| COCc1cc2nn(CC(=O)Nc3ccc(F)cc3C)c(=O)n2c(-c2ccccc2)n1 | 826 s |
| O=C(Nc1ccc2ncnc(N3CCCCC3)c2c1)c1cccs1 | 670 s |
| Cc1cnc(-c2cccnc2)n1C1CCN(S(=O)(=O)c2cccnc2)C1 (configuration not stated) | 575 s |
| COc1cccc(NC(=O)c2c(O)c3cccnc3n(-c3ccccc3)c2=O)c1 | 1220 s |

| SMILES | RP-LC retention time |
| --- | --- |
| CNC(=O)c1ccc2c(c1)CCCN2C(=O)c1ccc(F)cc1 | 698 s |
| Cc1cc(C)n(CCC(=O)NCc2cccnc2Oc2ccccc2)n1 | 706 s |
| CN1C(=O)c2cc(C(=O)NCc3ccccc3F)nn2CC1(C)C(=O)NC1CCCCCC1 (configuration not stated) | 839 s |
| Cc1ccc2ncn(C3CCN(C(=O)Nc4cc(Cl)ccc4C)CC3)c(=O)c2c1 | 911 s |
| COc1ccc(OC)c(-c2cn3ccn(-c4ccc(OC)c(Cl)c4)c(=O)c3n2)c1 | 885 s |
| O=C(Cn1c(=O)n(Cc2cccnc2)c(=O)c2ncccc21)c1ccc2c(c1)CCCC2 | 630 s |
| COc1cc(Nc2c(C(=O)N3CCC(C)CC3)cnc3nc(C)ccc23)cc(OC)c1 | 662 s |
| COC(=O)c1ccc(C(=O)NCC2(O)CCOCC2)cc1 | 584 s |
| COc1cccc(N2CC(c3nc4ccccc4n3CC(=O)N3CCCC3)CC2=O)c1 (configuration not stated) | 619 s |
| COc1ccc(-c2nnc(-c3ccc(Cl)c(S(=O)(=O)N4CCCCCC4)c3)o2)cc1 | 1210 s |
| CC1Cc2ccccc2N1C(=O)c1coc(NC(=O)c2ccco2)n1 (configuration not stated) | 724 s |
| O=C(Cc1cccc(F)c1)N1CCC2(C1)C(=O)Nc1ccccc12 (configuration not stated) | 713 s |
| O=C(c1cc(-c2ccco2)on1)N1CCC(Oc2nc3ccccc3s2)CC1 | 1030 s |
| COc1ccc2c3c([nH]c2c1)[C@H](CC(C)C)N1C(=O)[C@H](CCC(=O)OC(C)(C)C)NC(=O)[C@@H]1C3 | 1100 s |
| C[C@@H](NC(=O)c1cc(C(=O)N[C@@H](Cc2ccccc2)[C@H](O)CNC2CC2)cc(N(C)S(C)(=O)=O)c1)c1ccccc1 | 705 s |
| CCc1cccc(NC(=O)C2CCCN(c3nnc4ccccn34)C2)c1 (configuration not stated) | 734 s |
| O=C(C1CCN(c2cc(N3CCCCC3)ncn2)CC1)N1CCC(N2CCCCC2)CC1 | 557 s |
| O=C(CN1C(=O)C2CCCCN2c2ccc(C(=O)N3CCCC3)cc21)Nc1ccc2c(c1)OCO2 (configuration not stated) | 794 s |
| O=C(Cn1cnc(-c2nc(-c3ccccc3)cs2)c1)Nc1cc(F)ccc1F | 825 s |
| Cn1nc(-c2nnc(-c3ccccc3F)o2)c2c1CCN(S(=O)(=O)c1ccc(Cl)cc1)C2 | 979 s |
| CCN(CC)C(=O)c1ccc2oc(CN3CCN(C(=O)NC4CCCC4)CC3)nc2c1 | 630 s |
| Cc1ccc(C(=O)N2CCCn3nc(-c4ccc(Cl)cc4)cc3C2)s1 | 931 s |
| CN1C(=O)C(c2c(-c3ccc(Cl)cc3)[nH]c3[nH]c(=O)[nH]c(=O)c23)c2ccccc21 (configuration not stated) | 716 s |
| COc1ccc(CNC(=O)N2CCC(n3c(-c4ccco4)nc4cccnc43)C2)cc1 (configuration not stated) | 759 s |
| COc1ccc(NC(=O)c2noc3c2CCCCC3)cc1OC | 907 s |

Further lines, results first:

| RP-LC retention time | SMILES |
| --- | --- |
| 951 s | COc1cc(OC)cc(-c2noc(CCn3nc(-c4ccccc4)ccc3=O)n2)c1 |
| 938 s | CCCS(=O)(=O)N1CC(=O)N(c2ccc(F)cc2)C(C)(C(=O)NC2CCCCCC2)C1 (configuration not stated) |
| 749 s | CCc1noc(NC(C)=O)c1-c1ccc(OC)c(S(=O)(=O)Nc2ccc(OC)cc2)c1 |
| 687 s | CCC1CN2C=Nc3oc(C)c(C(=O)Nc4cccc(Cl)c4C)c3C2=N1 (configuration not stated) |
| 1160 s | CCCNS(=O)(=O)c1cc(-c2nc(C(C)C)cs2)sc1C |
| 928 s | Cc1cc(C)n(-c2ccnc(NCc3ccc(Cl)cc3)n2)n1 |
| 745 s | CCC(C)(C)NC(=O)C1CCN(S(=O)(=O)c2ccc3c(c2)NC(=O)CO3)CC1 |
| 907 s | Cc1cc(C)n(-c2nc(C)c(C)c(=O)n2CC(=O)N2CCCc3ccccc32)n1 |
| 752 s | CCCCN1CCN(S(=O)(=O)c2ccccc2-c2nc(-c3ccc(F)cc3)no2)CC1 |
| 669 s | Cc1cc(C)cc(NC(=O)Cc2nc(-c3ccccn3)n[nH]2)c1 |
| 765 s | CCN1CCCn2cc(S(=O)(=O)Nc3ccc(Cl)cc3)cc2C1=O |
| 691 s | CC(C)NC(=O)c1ccc2c(c1)N(S(C)(=O)=O)CC2 |
| 671 s | Cc1cc(C)n2nc(SCC(=O)NCc3ccc(F)cc3)nc2n1 |
| 735 s | COc1ccc(S(=O)(=O)C(CNC(=O)c2ccco2)c2cccs2)cc1 (configuration not stated) |
| 840 s | O=C(Cc1csc(-n2cccc2)n1)NCCc1c[nH]c2ccccc12 |
| 941 s | Cc1cc2nn(CC(=O)N3CCC(C)CC3)c(=O)n2c(Nc2ccc(C)c(C)c2)n1 |
| 674 s | CCN1CCN(Cc2nc(Cn3ccn4nc(-c5ccc(C)c(C)c5)cc4c3=O)no2)CC1 |
| 1310 s | Cc1csc(-c2csc(S(=O)(=O)N3CCN(c4cccc(C)c4C)CC3)c2)n1 |
| 555 s | CCn1c(=O)c(C(=O)NCc2cccnc2)nc2cccnc21 |

| RP-LC retention time | SMILES |
| --- | --- |
| 990 s | CCN1C(=O)COc2ccc(-c3nc(NC(=O)c4cccs4)sc3C)cc21 |
| 1130 s | CCOc1cccc(-c2noc(CN3C(=O)COc4cc(C)ccc43)n2)c1 |
| 1270 s | CCOC(=O)c1cc([N+](=O)[O-])sc1NC(=O)c1nc2ccccc2s1 |
| 860 s | CC(C)N1C(=O)c2cccnc2Sc2cc(NC(=O)C3CCCC3)ccc21 |
| 640 s | CCCc1noc(-c2ccnc(-n3ncc(C(=O)NC4CCCC4)c3C)c2)n1 |
| 863 s | CCn1ncn2cc(S(=O)(=O)Nc3ccccc3C)cc2c1=O |
| 973 s | Cc1ccc(C(=O)Nc2nc(-c3ccccc3)cs2)o1 |
| 919 s | CCS(=O)(=O)N1CC(=O)N(c2ccc(F)cc2C)C(C)(C(=O)NC2CCCCC2)C1 (configuration not stated) |
| 746 s | Cc1ccc(CNC(=O)C2Cn3cccc3C(=O)N2CC(C)C)o1 (configuration not stated) |
| 624 s | CCCNC(=O)CCc1c(-c2ccc(Br)cc2)nc2ccccn12 |
| 776 s | CCC(C)NC(=O)c1cc(COc2ccc(NC(=O)C(C)C)cc2)on1 (configuration not stated) |
| 921 s | CCc1nn2c(CNS(=O)(=O)c3ccccc3C)c(-c3ccccc3)nc2s1 |
| 1040 s | COc1ccc(NC(=O)c2cc(C)n3nc(C)cc3n2)c(C)c1 |
| 741 s | COc1ccccc1-c1nc(-c2ccc3ncn(C(C)C)c3c2)no1 |
| 990 s | CCN(CC)C(=O)c1cnc2snc(C)c2c1N1CCC(C(=O)Nc2ccc(Br)cc2)CC1 |
| 951 s | COc1ccc(C(=O)Nc2ccc3c(c2)Sc2ncccc2C(=O)N3C(C)C)c(OC)c1 |
| 550 s | CCN(CC)c1ccc(C(=O)N2CCc3nc[nH]c3C2)cc1 |
| 743 s | CCS(=O)(=O)N1CC(=O)N(c2ccc(F)cc2)C(C)(C(=O)NCc2ccc(F)cc2)C1 (configuration not stated) |
